Test: xn = mol fraction of the nth substance listed
Conditions: for mass density: 101 kPa, Liquid

CC(C)=O [acetone] + Cc1ccccc1
Conditions	mass density [kg/m3]	surface tension liquid-gas [mN/m]
288.15 K, x1 = 0.1	866.62	28.54
288.15 K, x1 = 0.2	861.43	27.86
288.15 K, x1 = 0.3	855.6	27.32
288.15 K, x1 = 0.4	849.5	26.98
288.15 K, x1 = 0.5	842.16	26.58
288.15 K, x1 = 0.6	834.94	25.91
288.15 K, x1 = 0.6999	826.67	25.22
288.15 K, x1 = 0.8	817.43	24.68
288.15 K, x1 = 0.9	807.56	24.24
288.15 K, x1 = 1	795.65	24.34
293.15 K, x1 = 0.1	861.94	–
293.15 K, x1 = 0.2	856.62	–
293.15 K, x1 = 0.3	850.69	–
293.15 K, x1 = 0.4	844.49	–
293.15 K, x1 = 0.5	837.08	–
293.15 K, x1 = 0.6	829.76	–
293.15 K, x1 = 0.6999	821.37	–
293.15 K, x1 = 0.8	812.03	–
293.15 K, x1 = 0.9	802.05	–
293.15 K, x1 = 1	790.04	–
298.15 K, x1 = 0.1	857.19	27.42
298.15 K, x1 = 0.2	851.77	26.78
298.15 K, x1 = 0.3	845.76	26.27
298.15 K, x1 = 0.4	839.43	25.87
298.15 K, x1 = 0.5	831.96	25.26
298.15 K, x1 = 0.6	824.52	24.69
298.15 K, x1 = 0.6999	816.05	24.14
298.15 K, x1 = 0.8	806.58	23.46
298.15 K, x1 = 0.9	796.47	23.01
298.15 K, x1 = 1	784.33	23.02
303.15 K, x1 = 0.1	852.43	–
303.15 K, x1 = 0.2	846.92	–
303.15 K, x1 = 0.3	840.8	–
303.15 K, x1 = 0.4	834.37	–
303.15 K, x1 = 0.5	826.83	–
303.15 K, x1 = 0.6	819.3	–
303.15 K, x1 = 0.6999	810.71	–
303.15 K, x1 = 0.8	801.09	–
303.15 K, x1 = 0.9	790.88	–
303.15 K, x1 = 1	778.57	–
308.15 K, x1 = 0.1	847.66	26.25
308.15 K, x1 = 0.2	842.06	25.78
308.15 K, x1 = 0.3	835.83	25.21
308.15 K, x1 = 0.4	829.3	24.88
308.15 K, x1 = 0.5	821.64	24.2
308.15 K, x1 = 0.6	814	23.59
308.15 K, x1 = 0.6999	805.29	22.92
308.15 K, x1 = 0.8	795.56	22.51
308.15 K, x1 = 0.9	785.21	21.83
308.15 K, x1 = 1	772.76	21.72
313.15 K, x1 = 0.1	842.86	–
313.15 K, x1 = 0.2	837.17	–
313.15 K, x1 = 0.3	830.83	–
313.15 K, x1 = 0.4	824.2	–
313.15 K, x1 = 0.5	816.43	–
313.15 K, x1 = 0.6	808.68	–
313.15 K, x1 = 0.6999	799.88	–
313.15 K, x1 = 0.8	790.01	–
313.15 K, x1 = 0.9	779.49	–
313.15 K, x1 = 1	766.91	–
318.15 K, x1 = 0.1	838.04	24.97
318.15 K, x1 = 0.2	832.23	24.75
318.15 K, x1 = 0.3	825.82	24.09
318.15 K, x1 = 0.4	819.06	23.74
318.15 K, x1 = 0.5	811.19	22.82
318.15 K, x1 = 0.6	803.32	22.67
318.15 K, x1 = 0.6999	794.39	21.7
318.15 K, x1 = 0.8	784.39	21.34
318.15 K, x1 = 0.9	773.74	20.48
318.15 K, x1 = 1	760.99	20.38
323.15 K, x1 = 0.1	833.22	–
323.15 K, x1 = 0.2	827.29	–
323.15 K, x1 = 0.3	820.75	–
323.15 K, x1 = 0.4	813.89	–
323.15 K, x1 = 0.5	805.91	–
323.15 K, x1 = 0.6	797.91	–
323.15 K, x1 = 0.6999	788.88	–
323.15 K, x1 = 0.8	778.74	–
323.15 K, x1 = 0.9	767.94	–
323.15 K, x1 = 1	755.02	–
328.15 K, x1 = 0.1	828.34	23.63
328.15 K, x1 = 0.2	822.32	23.48
328.15 K, x1 = 0.3	815.67	23.04
328.15 K, x1 = 0.4	808.7	22.7
328.15 K, x1 = 0.5	800.59	21.99
328.15 K, x1 = 0.6	792.48	21.06
328.15 K, x1 = 0.6999	783.31	20.65
328.15 K, x1 = 0.8	773.01	19.95
328.15 K, x1 = 0.9	762.08	19.32
328.15 K, x1 = 1	748.98	19.15

CC(C)=O [acetone] + O
surface tension liquid-gas [mN/m], Pendant drop shape
Conditions	288.15 K	298.15 K	308.15 K	318.15 K	328.15 K
x1 = 0.0099	62.59	61.04	59.26	58.11	57.74
x1 = 0.05	47.85	46.14	44.78	43.74	42.86
x1 = 0.0999	40.32	39.07	37.88	36.87	35.71
x1 = 0.15	35.72	34.41	33.13	32.02	30.76
x1 = 0.1999	33.71	32.21	30.74	29.4	28.31
x1 = 0.2999	30.6	29.35	28.08	26.98	25.68
x1 = 0.4	29.19	27.98	26.78	25.47	24.23
x1 = 0.4999	28.24	27.04	25.82	24.53	23.28
x1 = 0.5999	27.29	26.03	24.81	23.63	22.26
x1 = 0.6999	26.71	25.44	24.25	22.94	21.73
x1 = 0.7999	25.78	24.51	23.2	22.02	20.9
x1 = 0.8999	25.06	23.8	22.56	21.19	20.19
x1 = 1	24.34	23.02	21.72	20.38	19.15

mass density [kg/m3]
Conditions	288.15 K	293.15 K	298.15 K	303.15 K	308.15 K	313.15 K	318.15 K	323.15 K	328.15 K
x1 = 0.0099	994.9	993.87	992.55	991	989.16	987.26	985.07	982.76	980.29
x1 = 0.05	981.27	979.34	977.21	974.89	972.41	969.77	966.73	963.1	959.94
x1 = 0.1	965.81	962.9	959.83	956.64	953.33	949.91	946.37	942.68	938.87
x1 = 0.15	950.41	946.79	943.05	939.23	935.32	931.31	927.21	923	918.72
x1 = 0.2	935.61	931.54	927.37	923.1	918.78	914.37	909.89	905.19	900.64
x1 = 0.3	907.7	903.09	898.35	893.54	888.68	883.75	878.76	873.7	868.56
x1 = 0.4	884.77	879.81	874.8	869.68	864.53	859.33	854.06	848.74	843.31
x1 = 0.5	863.71	858.56	853.35	848.07	842.72	837.31	831.85	826.32	820.73
x1 = 0.6	845.83	840.53	835.15	829.71	824.22	818.66	813.05	807.35	801.6
x1 = 0.7	830.7	825.3	819.8	814.25	808.63	802.96	797.22	791.42	785.55
x1 = 0.8	818.04	812.56	806.97	801.32	795.62	789.84	784.05	778.16	772.2
x1 = 0.9	805.86	800.27	794.6	788.88	783.11	777.29	771.4	765.46	759.81
x1 = 1	795.65	790.04	784.33	778.57	772.76	766.91	760.99	755.02	748.98
